Laboratory results as given in ChEMBL document CHEMBL1201862, “PubChem BioAssay data set” (2004).
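Tested at 5 concentrations; 48 h exposure; 96-well plates; endpoints linearly interpolated, else capped at highest concentration. GI50: concentration for 50% inhibition of growth.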 Calls of active or inactive are those of the source. Rule as the data show it: active = GI50 up to about 1.1 µM and inactive = higher.

Tests used:
Experiment in all cases: inhibition of tumour cell growth, NCI panel, 48 h
[1] = test system: MDA-MB-231
[2] = test system: SN12C
[3] = test system: MDA-N
[4] = test system: Malme-3M
[5] = test system: Hs-578T
[6] = test system: RPMI-8226
[7] = test system: SF-295
[8] = test system: HCT-116
[9] = test system: SK-OV-3
[10] = test system: SNB-19
[11] = test system: UACC-62
[12] = test system: SW-620
[13] = test system: UO-31
[14] = test system: NCI-H460
[15] = test system: NCI-H226
[16] = test system: IGROV-1
[17] = test system: T47D
[18] = test system: HOP-92
[19] = test system: HCC 2998

Measured: GI50

CCCNC1=Nc2ccccc2NC(C)C1 (centres undefined)
inactive: [1] > 100 µM | [2] > 100 µM | [3] > 100 µM | [4] 79.6 µM | [5] > 100 µM | [6] > 100 µM | [7] > 100 µM | [8] > 100 µM | [9] > 100 µM | [10] > 100 µM | [11] > 100 µM | [12] > 100 µM | [13] > 100 µM | [14] > 100 µM | [15] > 100 µM | [16] > 100 µM

C=C(CCC/C(C)=C/C=C/[C@@H](C)CCCc1ccoc1)C[C@@H]1OC(=O)[C@H](C)[C@@H]1O
inactive: [1] 7.48 µM | [2] 9.68 µM | [3] 9.73 µM | [17] 8.36 µM | [4] 8.91 µM | [18] 10.6 µM | [6] 12.8 µM | [7] 7.6 µM | [8] 13.3 µM | [19] 11.6 µM | [9] 7.46 µM | [10] 9.25 µM | [11] 5.27 µM | [12] 11.4 µM | [13] 7.85 µM | [14] 11 µM | [15] 6.43 µM | [16] 10.7 µM

c1ccc2sc(C3(N4CCCCC4)CCCC3)cc2c1
inactive: [2] 13.5 µM | [3] 17.4 µM | [4] 13.8 µM | [18] 11.2 µM | [5] 14.1 µM | [6] 2.38 µM | [7] 11 µM | [8] 5.94 µM | [19] 3.85 µM | [9] 15.9 µM | [10] 13.8 µM | [11] 15.5 µM | [12] 8.02 µM | [13] 16.9 µM | [14] 5.93 µM | [15] 1.79 µM | [16] 10.6 µM

O=c1c2ccccc2[nH]c2c(Cl)cc(Cl)c(NC3CCCCC3)c12
inactive: [1] 29 µM | [2] 24.4 µM | [3] 33.3 µM | [17] 31.1 µM | [6] 28.3 µM | [7] 24.2 µM | [8] 38.5 µM | [19] 25.1 µM | [9] 32.2 µM | [10] 13.2 µM | [11] 16.6 µM | [12] 22.6 µM | [13] 15.3 µM | [15] 21.6 µM | [16] 18.2 µM

CCCCNC(=S)Nc1nc(C(=O)NNC(=S)NCc2ccccc2)cs1
inactive: [1] 66.4 µM | [2] 31 µM | [3] 39.9 µM | [17] 13.2 µM | [4] 50.5 µM | [6] 45.9 µM | [7] 37.5 µM | [8] 32.9 µM | [19] 36.6 µM | [9] 88.5 µM | [11] 19 µM | [12] 48.2 µM | [13] 23.9 µM | [15] 32.9 µM | [16] 30.1 µM

CSC1=Nc2ccccc2-c2nc(-c3ccccc3)cc(-c3ccccc3)c2C1
inactive: [1] 14.2 µM | [2] 28.2 µM | [3] 26.5 µM | [17] 10.4 µM | [6] > 100 µM | [7] 13.6 µM | [8] 5.16 µM | [19] 41.6 µM | [9] 12.2 µM | [10] 6.4 µM | [11] 9.77 µM | [12] 15.7 µM | [13] 23.5 µM | [14] 5.12 µM | [15] 87.9 µM | [16] 10 µM

COc1cc(CC(C)=O)cc(OC)c1
inactive: [1] 36.3 µM | [2] 46.8 µM | [3] 27.4 µM | [17] 53.8 µM | [4] 51.2 µM | [18] 29.9 µM | [6] 27.8 µM | [7] 91 µM | [8] 50.6 µM | [19] > 100 µM | [9] > 100 µM | [10] > 100 µM | [11] 60.3 µM | [12] 65.6 µM | [13] 32.6 µM | [14] > 100 µM | [15] 50.9 µM | [16] 74.1 µM

CCOC(=O)C[C@@]12CCCNC1(C)CCc1ccccc12 (some centres undefined)
inactive: [2] > 100 µM | [4] > 100 µM | [6] > 100 µM | [7] 52.5 µM | [8] > 100 µM | [9] > 100 µM | [10] > 100 µM | [11] > 100 µM | [12] > 100 µM | [13] > 100 µM | [14] > 100 µM | [15] > 100 µM | [16] > 100 µM

C[C@H]1C(OCCOC2O[C@@H]3O[C@@]4(C)CC[C@H]5[C@H](C)CCC([C@H]2C)[C@@]35O4)O[C@@H]2O[C@@]3(C)CC[C@H]4[C@H](C)CCC1[C@@]24O3 (some centres undefined)
inactive: [1] 27.2 µM | [2] 21 µM | [3] 38.7 µM | [17] 10.6 µM | [4] 15.8 µM | [18] 45.3 µM | [6] 58.6 µM | [8] 21 µM | [19] 21.6 µM | [9] 74.6 µM | [10] 33.9 µM | [11] 61.2 µM | [12] 44.4 µM | [14] 22.6 µM | [15] 28.2 µM | [16] 24.8 µM
